Measurements as given in patent US8685970B2, “Quinolines and related analogs as sirtuin modulators” (GlaxoSmithKline, LLC, priority 2008, dated 2014).

Target: T1, SIRT1 (Homo sapiens, UniProt Q96EB6)
T1 sequence (Q96EB6 1-747): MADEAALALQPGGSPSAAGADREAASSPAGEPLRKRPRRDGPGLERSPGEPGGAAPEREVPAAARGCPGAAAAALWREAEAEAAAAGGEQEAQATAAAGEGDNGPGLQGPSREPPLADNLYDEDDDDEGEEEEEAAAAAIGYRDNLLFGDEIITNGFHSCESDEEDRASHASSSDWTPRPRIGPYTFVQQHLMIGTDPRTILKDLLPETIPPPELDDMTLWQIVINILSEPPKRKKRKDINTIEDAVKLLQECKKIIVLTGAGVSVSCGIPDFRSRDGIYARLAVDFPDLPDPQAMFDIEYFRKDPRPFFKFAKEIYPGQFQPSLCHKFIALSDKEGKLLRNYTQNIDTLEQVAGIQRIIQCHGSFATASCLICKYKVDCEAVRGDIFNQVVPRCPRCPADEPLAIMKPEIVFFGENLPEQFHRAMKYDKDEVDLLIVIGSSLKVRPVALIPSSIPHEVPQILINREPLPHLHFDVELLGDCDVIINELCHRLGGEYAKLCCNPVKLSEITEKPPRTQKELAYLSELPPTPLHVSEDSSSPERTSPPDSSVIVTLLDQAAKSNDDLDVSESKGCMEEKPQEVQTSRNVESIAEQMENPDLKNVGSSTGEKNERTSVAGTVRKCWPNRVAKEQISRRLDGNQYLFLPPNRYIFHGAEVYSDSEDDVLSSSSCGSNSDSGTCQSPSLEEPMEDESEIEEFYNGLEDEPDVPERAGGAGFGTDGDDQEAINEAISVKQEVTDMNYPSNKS
Assay: Mass spectrometry based SIRT1 deacetylation assay (activation)
Assay type: biochemical
Conditions: 10 nM SIRT1, 0.5 μM peptide substrate, 120 μM βNAD+, 25 min at 25° C.
In short: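 Recombinant N-His-tagged SIRT1 (E. coli BL21(DE3)), 10 nM, incubated 25 min at 25 °C with 0.5 μM biotin/5TMR-labelled acetyl-p53-derived 20-mer peptide and 120 μM βNAD+ in Tris-acetate pH 8 buffer with DTT and BSA. Formic acid stop; MS quantifies acetylated vs deacetylated peptide. EC1.5 = concentration giving 150% activation versus DMSO.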

SMILES	% Fold Act. (percent maximum fold activation)	EC1.5 (concentration of test compound that results in 150% activation of SIRT1)
O=C(Nc1cccc(OC[C@H](O)CO)c1)c1cccc2ccc(-c3cccc(C(F)(F)F)c3)nc12 [Compound 217]	A (Fold activation >200%)	A (EC1.5<1.0 uM)
O=C(Nc1ncc(CN2CCCC2)s1)c1cccc2ccc(-c3cccnc3)nc12 [Compound 218]	A (Fold activation >200%)	B (EC1.5 1-25 uM)
O=C(Nc1ncc(CN2CCCC2)s1)c1cccc2ccc(-c3cccc(C(F)(F)F)c3)nc12 [Compound 219]	A (Fold activation >200%)	A (EC1.5<1.0 uM)
O=C(Nc1cccc2ccc(-c3cccc(C(F)(F)F)c3)nc12)c1cncs1 [Compound 220]	A (Fold activation >200%)	A (EC1.5<1.0 uM)
Cn1cnc(C(=O)Nc2cccc3ccc(-c4cccc(C(F)(F)F)c4)nc23)c1 [Compound 221]	A (Fold activation >200%)	A (EC1.5<1.0 uM)
Cn1ccnc1C(=O)Nc1cccc2ccc(-c3cccc(C(F)(F)F)c3)nc12 [Compound 222]	A (Fold activation >200%)	A (EC1.5<1.0 uM)
Cc1cc(-c2ccc3cccc(C(=O)Nc4nccs4)c3n2)ccn1 [Compound 223]		C (EC1.5>25 uM)
O=C(Nc1cccc2ccc(-c3cccc(C(F)(F)F)c3)nc12)c1cc[nH]n1 [Compound 224]	A (Fold activation >200%)	A (EC1.5<1.0 uM)
Cc1cnc(NC(=O)c2cccc3ccc(-c4cccnc4)nc23)s1 [Compound 225]		C (EC1.5>25 uM)
Cc1nc(NC(=O)c2cccc3ccc(-c4cccnc4)nc23)sc1C [Compound 226]	A (Fold activation >200%)	B (EC1.5 1-25 uM)
O=C(Nc1cccc(CN2CCCC2)n1)c1cccc2ccc(-c3cccc(C(F)(F)F)c3)nc12 [Compound 227]	A (Fold activation >200%)	A (EC1.5<1.0 uM)
O=C(Nc1cccc(CN2CCOCC2)n1)c1cccc2ccc(-c3cccc(C(F)(F)F)c3)nc12 [Compound 228]	A (Fold activation >200%)	A (EC1.5<1.0 uM)
CS(=O)(=O)c1cncc(-c2ccc3cccc(NC(=O)c4cscn4)c3n2)c1 [Compound 229]	A (Fold activation >200%)	B (EC1.5 1-25 uM)
O=C(Nc1cccc(CN2CCCC2)n1)c1cccc2ccc(-c3cccnc3)nc12 [Compound 230]	A (Fold activation >200%)	B (EC1.5 1-25 uM)
O=C(Nc1cccc(CN2CCOCC2)n1)c1cccc2ccc(-c3cccnc3)nc12 [Compound 231]	A (Fold activation >200%)	A (EC1.5<1.0 uM)
O=C(Nc1ncnc2ccc(-c3cccc(OC(F)(F)F)c3)nc12)c1ccc(CN2CCCC2)cc1 [Compound 232]	A (Fold activation >200%)	B (EC1.5 1-25 uM)
O=C(Nc1nc2ccccc2s1)c1cccc2ccc(-c3cccnc3)nc12 [Compound 233]	B (Fold Activation <200%)	B (EC1.5 1-25 uM)
O=C(Nc1nncs1)c1cccc2ccc(-c3cccnc3)nc12 [Compound 234]		C (EC1.5>25 uM)
Cc1nnc(NC(=O)c2cccc3ccc(-c4cccnc4)nc23)s1 [Compound 235]		C (EC1.5>25 uM)

The remaining lines, values ahead:

% Fold Act. (percent maximum fold activation)	EC1.5 (concentration of test compound that results in 150% activation of SIRT1)	SMILES
	C (EC1.5>25 uM)	Cc1cc(NC(=O)c2cccc3ccc(-c4cccnc4)nc23)sn1 [Compound 236]
	C (EC1.5>25 uM)	O=C(Nc1ccncc1)c1cccc2ccc(-c3cccnc3)nc12 [Compound 237]
A (Fold activation >200%)	A (EC1.5<1.0 uM)	Cc1csc(NC(=O)c2cccc3ccc(-c4cccc(N5CCOCC5)c4)nc23)n1 [Compound 238]
A (Fold activation >200%)	A (EC1.5<1.0 uM)	Cc1cnc(NC(=O)c2cccc3ccc(-c4cccc(N5CCOCC5)c4)nc23)s1 [Compound 239]
A (Fold activation >200%)	A (EC1.5<1.0 uM)	Cc1nc(NC(=O)c2cccc3ccc(-c4cccc(N5CCOCC5)c4)nc23)sc1C [Compound 240]
B (Fold Activation <200%)	A (EC1.5<1.0 uM)	Cc1cnc(NC(=O)c2cccc3ccc(-c4cccnc4)nc23)s1 [Compound 241]
	C (EC1.5>25 uM)	Cc1cncc(-c2ccc3cccc(C(=O)Nc4nccs4)c3n2)c1 [Compound 242]
A (Fold activation >200%)	A (EC1.5<1.0 uM)	Cc1cncc(-c2ccc3cccc(C(=O)Nc4cccc(CN5CCOCC5)c4)c3n2)c1 [Compound 243]
A (Fold activation >200%)	A (EC1.5<1.0 uM)	Cc1cncc(-c2ccc3cccc(C(=O)Nc4cccc(CN5CCOCC5)n4)c3n2)c1 [Compound 244]
A (Fold activation >200%)	A (EC1.5<1.0 uM)	Cn1ccc(C(=O)Nc2cccc3ccc(-c4cccc(C(F)(F)F)c4)nc23)n1 [Compound 245]
A (Fold activation >200%)	B (EC1.5 1-25 uM)	O=C(Nc1cccc2ccc(-c3ccc(N4CCOCC4)nc3)nc12)c1cscn1 [Compound 246]
A (Fold activation >200%)	A (EC1.5<1.0 uM)	O=C(Nc1nccs1)c1cccc2ccc(-c3cccc(C(F)F)c3)nc12 [Compound 247]
A (Fold activation >200%)	A (EC1.5<1.0 uM)	Cc1cc(C)nc(NC(=O)c2cccc3ccc(-c4cccnc4)nc23)c1 [Compound 248]
A (Fold activation >200%)	B (EC1.5 1-25 uM)	Cc1cccc(NC(=O)c2cccc3ccc(-c4cccnc4)nc23)n1 [Compound 249]
A (Fold activation >200%)	A (EC1.5<1.0 uM)	O=C(Nc1nc2ccccc2s1)c1cccc2ccc(-c3cccc(N4CCOCC4)c3)nc12 [Compound 250]
A (Fold activation >200%)	A (EC1.5<1.0 uM)	O=C(Nc1nncs1)c1cccc2ccc(-c3cccc(N4CCOCC4)c3)nc12 [Compound 251]
A (Fold activation >200%)	A (EC1.5<1.0 uM)	Cc1nnc(NC(=O)c2cccc3ccc(-c4cccc(N5CCOCC5)c4)nc23)s1 [Compound 252]
A (Fold activation >200%)	A (EC1.5<1.0 uM)	Cc1cc(NC(=O)c2cccc3ccc(-c4cccc(N5CCOCC5)c4)nc23)sn1 [Compound 253]
A (Fold activation >200%)	A (EC1.5<1.0 uM)	O=C(Nc1ccncc1)c1cccc2ccc(-c3cccc(N4CCOCC4)c3)nc12 [Compound 254]
A (Fold activation >200%)	A (EC1.5<1.0 uM)	O=C(Nc1cccc(CN2CCOCC2)c1)c1cccc2ccc(-c3cccc(C(F)(F)F)c3)nc12 [Compound 255]
A (Fold activation >200%)	A (EC1.5<1.0 uM)	O=C(Nc1cccc(OC2CCNCC2)c1)c1cccc2ccc(-c3cccc(C(F)(F)F)c3)nc12 [Compound 256]
